Patent publication US20030186423A1, “Amidase from variovorax” (Degussa AG, priority 2001, published 2003)
Values belong to the molecule of their own block, whether it stands above or below them.

Key:
Type in all cases: biochemical, Variovorax paradoxus
D-amidase [1] = test: Enzyme test for acid amides, activity by determination of ammonium ions with glutamate dehydrogenase; settings: substrate 40 mM
Method: The activity was measured by determination of the ammonium ions with glutamate dehydrogenase (Bergmeyer, H. U., and Beutler, H.-O. (1985), Ammonia. In: Methods of Enzymatic Analysis. VCH-Verlag, 3rd edition, vol. 8: 454-461, Weinheim). […] The substrates were employed in the enzyme test at 40 mM, except for succinic acid diamide and adipic acid diamide, each at 10 mM, and benzylamide at 20 mM. Since the activities were determined only at in each case one substrate concentration, relative activities are stated.
(§1) In the conversion of tert-leucinamide (gen. acid amides) by the D-amidase, the formation of ammonia or ammonium ions and tert-leucine (gen. acid) in equimolar amounts occurs. […] The change in concentration of the components participating can be measured in an enzyme test, which comprises incubation of the following test batch for 10-60 minutes at 30° C.
(§2) The enzyme test was started by addition of the substrate and the reaction was stopped by heating at 95° C. for three minutes. The analysis of the reaction products was carried out for ammonium ions by enzymatic determination of ammonium by glutamate dehydrogenase (Bergmeyer, H.,U., and Beutler, H.-O. (1985) Ammonia. In: Methods of Enzymatic Analysis. VCH-Verlag, 3rd edition, vol. 8: 454-461, Weinheim) and for D- and L-tert-leucine by means of HPLC (Bruckner, H., Wittner R., and Godel H., (1991) Fully automated high-performance liquid chromatographic separation of DL-amino acids derivatized with o-phthaldialdehyde together with N-isopropyl-cysteine. Application to food samples. Anal. Biochem. 144(1): 204-206). Batches to which no substrate were added served as controls.
(§3) The enzyme glutamate dehydrogenase (GluDH; E.C.1.4.1.3) converts 2-oxoglutarate into L-glutamate, ammonium ions being consumed and NADH being oxidized to NAD+(Bergmeyer, H.,U. and Beutler, H.-O. (1985), Ammonia. In: Methods of Enzymatic Analysis. VCH-Verlag, 3rd edition, vol. 8: 454-461, Weinheim). The amount of NADH consumed during the reaction is equivalent to the amount of ammonium ions. The change in the concentration of NADH is the measurement parameter and can be determined spectrophotometrically at a wavelength of 340 nm.
The test components were pipetted into cells of plastic (1.5 ml semimicro disposable cells, Brand) and mixed and the extinction at 340 nm was determined after 5 min. 10 μl GluDH were then added, and after the reaction had gone to completion, as a rule after 30 min, the extinction was measured again.

D-amidase [2] = test: Enzyme test for amino acid amides and α-hydroxycarboxylic acid amides (HPLC or NH4+ determination); settings: substrate 40 mM
Method: For prolinamide, and the α-hydroxycarboxylic acid amides lactic acid amide (Lac-NH2) and 2-hydroxy-4-methylmercaptobutyric acid amid (MHA-NH2), the methionine-analogous α-hydroxycarboxylic acid amide, determination of the product with the previous HPLC analysis is not possible. For these substrates, the activity was determined with the aid of NH4^+ determination. […] All the substrates were employed in the enzyme test at 40 mM. In the 4th column, for further comparison the activity for the lower enantiomer has been set at 1 and a relative activity for the preferred enantiomer has been calculated therefrom.
as §1, §2
(§4) The separation and quantitative determination of the enantiomers D- and L-tert-leucine were carried out by a “chiral derivatization” on the basis of o-phthaldialdehyde (OPA)/N-isobutyryl-L-cysteine or N-isobutyryl-D-cysteine (Brückner, H.; Wittner R. and Godel H. (1991), Fully automated high-performance liquid chromatographic separation of DL-amino acids derivatized with o-Phthaldialdehyde together with N-isopropyl-cysteine. Application to food samples. Anal. Biochem. 144, 204-206). The diastereomeric isoindole derivatives formed were separated on an RP-18 (reversed phase) column and detected by fluorescence. A two-buffer system of aqueous acetate buffer and an acetonitrile/water mixture was used as the mobile phase.

D-amidase [3] = test: Kinetic cleavage of racemic amino acid amides: enantioselectivity as a function of the conversion
Method: To evaluate the suitability for kinetic cleavage of racemic DL-Tle-NH2, the enantioselectivity was determined as a function of the conversion.
DL-Valin-, DL-leucin- and DL-phenylalaninamide were alos tested in this respect. For this, the enantioselectivity was determined as function of the conversion with partly purified enzyme from Variovorax paradoxus 19-3 after the 1st chromatography step.
as §4

D-amidase [4] = test: Specific activity of crude extracts and purified D-amidase for DL-Tle-NH2; settings: DL-Tle-NH2 as the substrate
Method: as §1, §2

D-amidase [5] = test: Enzyme test for N-formylated amino acid amides, NH4+ determination with glutamate dehydrogenase
Method: as §3, with “The cleavage of racemic N-formylated amino acid amides was investigated by using the D-amidase according to the invention. The enzyme used was a partly purified D-amidase after the 1st chromatography step. The activity was measured by determining the NH4^+ ions with glutamate dehydrogenase (Bergmeyer, H. U., and Beutler, H.-O. (1985), Ammonia. In: Methods of Enzymatic Analysis. VCH-Verlag, 3rd edition, vol. 8: 454-461, Weinheim). The following substrates were employed in the enzyme test at 10 mM. The enzyme” for “The enzyme”

- Activity with respect to Tle-NH2 (D-amidase [1]; DL-Tle-NH2 = 1): 1
- Relative act. (D-amidase [1]; partly purified D-amidase after the 2nd chromatography step (0.51 U/mg)): 0.51 U/mg
- Activity with respect to Tle-NH2 (D-amidase [2]; DL-Tle-NH2 = 1): 1
- Specific activity (D-amidase [2]; partly purified D-amidase after the 2nd chromatography step (0.56 U/mg), Pro-, Lac-, MHA-NH2 by NH4+ determination): 0.56 U/mg
- E value (D-amidase [3]; both series of experiments (partly purified and virtually homogeneous enzyme)): greater than 100
- enantioselectivity with respect to D-Tle (D-amidase [3]; partly purified enzyme after the 1st chromatography step, conversion of greater than 45%): 96.6%
- Specific activity (D-amidase [4]; D-amidase after the first two purification steps): 0.68 U/mg
- Specific activity (D-amidase [4]; crude extract of E. coli JM 101 expression clones): 80-210 mU/mg
- Specific activity (D-amidase [4]; homogeneously purified D-amidase from Variovorax paradoxus): 1.4 U/mg
- Activity with respect to Tle-NH2 (D-amidase [5]; Table 4, DL-Tle-NH2 = 100): 100%
- Relative act. (D-amidase [5]; Table 4, substrate 10 mM, partly purified D-amidase after the 1st chromatography step): 200 mU/mg
SMILES: CC(C)(C)C(N)C(N)=O (racemic) [DL-Tle-NH2, D,L-tert-Leucinamide]

- E value (D-amidase [3]; conversion 3%): 190
- ee D-Val (D-amidase [3]; conversion 3%, partly purified enzyme after the 1st chromatography step): 98.9%
- E value (D-amidase [3]; conversion 15%): 180
- ee D-Val (D-amidase [3]; conversion 15%, partly purified enzyme after the 1st chromatography step): 98.7%
- E value (D-amidase [3]; conversion 29%): 200
- ee D-Val (D-amidase [3]; conversion 29%, partly purified enzyme after the 1st chromatography step): 98.5%
- E value (D-amidase [3]; conversion 42%): 220
- ee D-Val (D-amidase [3]; conversion 42%, partly purified enzyme after the 1st chromatography step): 98.1%
- E value (D-amidase [3]; conversion 50%): 140
- ee D-Val (D-amidase [3]; conversion 50%, partly purified enzyme after the 1st chromatography step): 95.1%
- E value (D-amidase [3]; conversion 57%): 56
- ee D-Val (D-amidase [3]; conversion 57%, partly purified enzyme after the 1st chromatography step): 75.0%
- Activity with respect to Tle-NH2 (D-amidase [5]; Table 5, DL-Val-NH2 = 100): 100%
- Relative act. (D-amidase [5]; Table 5, comparison of valinamide and N-formyl-valinamide): 870 mU/mg
SMILES: CC(C)[C@H](N)C(N)=O (racemic) [DL-Val-NH2, valinamide]
